In patent US20220213126A1, “SMALL MOLECULE AUTOPHAGY INDUCERS FOR THE TREATMENT OF CANCER AND NEURODEGENERATIVE DISEASES” (John Wayne Cancer Institute, priority 2019, published 2022):

Tests used:
[1] = Stability in simulated intestinal fluid; type: physicochemical
[2] = Plasma vs tumor PK in MDA-MB-231 xenograft mice; type: in vivo, athymic nude mice
Procedure: FIGS. 10A and 10B are graphs showing plasma (FIG. 10A) and tumor (FIG. 10B) concentrations of VMY-BC-1 in MDA-MB-231 xenograft mice administered 75 mg/kg VMY-BC-1.
At the end of the study, brain and plasma samples were collected for drug concentration. Tumor tissues were collected for immunohistochemistry, Western blot, and bioanalysis. Statistical analysis of tumor growth in the control and treated groups was performed by Student's T test using GraphPad Prism (Ver. 5.03).
The impact of VMY-BC-1 on autophagy proteins in tumor tissue was also investigated. […] Finally, as shown in Table 4 and FIGS. 10A and 10B, VMY-BC-1 had 3-fold higher drug concentration (Cmax) in tumors than in plasma.

[3] = athymic nude, mouse, Plasma, oral 75 mg/kg
[4] = athymic nude, mouse, Tumor, oral 75 mg/kg

## COc1ccc(/C=C/c2cc(OC)cc(B(O)O)c2)cc1 [VMY-BC-1]
[1]
  Stability in simulated intestinal fluid: 97.24% remaining
  Stability in simulated intestinal fluid (words): stable
[2]; 75 mg/kg oral
  Drug levels in tumor vs plasma: higher VMY-BC-1 drug levels in tumor than in plasma
[2]; Plasma, oral 75 mg/kg
  AUCextrap: 0.34%
[2]; Tumor, oral 75 mg/kg
  AUCextrap: 7.48%
  AUCinf: 41005.56 ng·h/g
  AUClast: 37936.36 ng·h/g
[2]; athymic nude, mouse, tumor and plasma, 75 mg/kg oral, read-out: Cmax in tumors relative to plasma
  Kp: 3
[2]; [3]
  AUC(0-inf): 32300 ng·h/mL
  AUC(0-t): 32200 ng·h/mL
  Cmax: 4530 ng/mL
  MRT last: 5.76 h
  Tmax: 0.5 h
  half-life: 3.15 h
[2]; [4]
  Cmax: 13600 ng/g
  MRT last: 1.94 h
  Tmax: 1 h
  half-life: 1.52 h
